Reference: patent US10328075B2, “Method of treatment and compounds for use therein” (Baker Heart and Diabetes Institute, priority 2015, dated 2019)
Like-named read-outs stand apart in the source and are kept apart here.

Biological target: T1, hFPR2 (Homo sapiens, UniProt P25090)
T1 construct: expressed in transfected cells
T1 sequence (P25090 1-351): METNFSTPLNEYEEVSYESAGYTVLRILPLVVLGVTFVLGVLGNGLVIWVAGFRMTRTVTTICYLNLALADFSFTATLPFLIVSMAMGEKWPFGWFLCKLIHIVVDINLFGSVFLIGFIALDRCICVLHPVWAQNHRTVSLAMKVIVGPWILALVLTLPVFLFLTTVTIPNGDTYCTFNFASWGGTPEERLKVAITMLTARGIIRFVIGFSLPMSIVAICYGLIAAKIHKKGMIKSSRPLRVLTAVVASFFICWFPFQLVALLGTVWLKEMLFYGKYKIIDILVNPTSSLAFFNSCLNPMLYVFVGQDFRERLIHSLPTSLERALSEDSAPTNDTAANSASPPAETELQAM
Assay: Akt (Thr308) phosphorylation in hFPR2-FlpIn-CHO cells
Format: cell-based
Conditions: for ΔLog(τ/KA), Akt 1/2/3 (Thr308) phosphorylation, hFPR2-Flpln-CHO: normalized transduction coefficient, reference agonist Cmpd43; for Log(τ/KA), Akt 1/2/3 (Thr308) phosphorylation, hFPR2-Flpln-CHO: transduction coefficient
Excerpt: cDNDA construct and generation of stable cell lines: cDNA in pcDNA3.1^+ encoding the human formyl peptide receptors (FPR) subtypes, hFPR1, hFPR2 and hFPR3 was obtained from Invitrogen. The sequences for 3 hFPR receptors were amplified by PCR and cloned into the Gateway entry vector, pDONR202™, using the BP clonase enzyme mix, according to the manufactures' instructions (Invitrogen Inc, Carlsbad, Calif., USA). All hFPR receptors constructs in pDONR201™ were subsequently transfected into the pEF5/FRT/V5/dest vector using the LR clonase enzyme mix (Invitrogen). Receptor constructs (pEF5/FRT/V5/dest) were used to transfect FIp-In CHO cells as described previously (Valant C et al., PNAS, 2014). Cells were selected using 500 μg/mL hydromycin to generate cell lines stably expressing each receptor construct. Cells were maintained and cultured in high glucose DMEM supplemented with 10% FBS, 16 mM HEPES and 500 μg/mL hydromycin at 37° C. under a humidified atmosphere containing 5% CO2.
In the various assays described below, cells were plated into 96-well transparent cell culture plates at 4×10^4 cells per well, cultured overnight in serum-free media at 37° C. in 5% CO2.
Measurement of Akt1/2/3 phosphorylation and Akt 1: The same lysate was used for measurement of Akt1/2/3 phosphorylation (Ser473) and Akt1 (Thr308). Cells were lysed in SureFire lysis buffer and transferred to 384-well opaque proxiplates. Under low-light conditions, a 1:10:40 (v:v:v) dilution of AlphaScreen acceptor beads:Surefire activation buffer:Surefire reaction buffer was prepared and the plate was incubated in the dark at RT for 2 h. Then, a 1:20 (v:v) dilution of AlphaScreen donor beads/dilution was prepared and incubated in the dark at RT for another 2 h, before the fluorescence signal was measured by used of a Fusion-α plate reader (PerkinElmer Life and Analytical Sciences) with standard AlphaScreen settings. Receptor mediated phosphorylation of Akt1/2/3 (Ser473) and Akt1 (Thr308) were determined using the AlphaScreen™ […] SureFire™ kit, as per as per manufacturer's instructions. Data were normalized to the maximal response elicited by 10% (v:v) FBS at the same time point.
Data analysis: All data were analysed using GraphPad Prism 6.0 (GraphPad Software, San Deigo, Calif., USA). Where appropriate, concentration-response curves were fitted to derive the maximal agonist effect (Emax), and the ligand potency estimate (pEC50), where Emax is the maximal possible response of the system (not the agonist), basal is the basal level of response in the absence of agonist, and pEC50 is the negative logarithm of the agonist concentration that gives a response halfway between Emax and basal.
In the present study, FIp-IN CHO cells and Gateway plasmid were obtained from Invitrogen Inc (Carlsbad, Calif., USA). The sequences for all 3 known human FPRs (hFPR1, hFPR2 and hFPR3) were amplified by PCR and cloned into the Gateway entry vector, pDONR202TM, using the BP clonase enzyme mix, according to the manufacturers' instructions. The hFPR pDONR201TM constructs were subsequently transfected into the pEF5/FRT/V5/dest vector using the LR clonase enzyme mix (Invitrogen). Receptor constructs (pEF5/FRT/V5/dest) were used to transfect FIp-IN CHO cells, as described previously (Valant et al. 2014). Cells were selected using 500 μg/mL hydromycin to generate cell lines stably expressing each human receptor construct. Cells were maintained and cultured in high glucose Dulbecco's modified eagle medium (DMEM) supplemented with 10% fetal bovine serum (FBS, from JRH Biosciences, Lenexa, Kans., USA) and 500 μg/mL hydromycin B (Invitrogen Inc) at 37° C. under a humidified atmosphere containing 5% CO2. Cell were plated into 96-well transparent cell culture plates at 4×10^4 cells per well, cultured overnight in serum-free media at 37° C. in 5% CO2.

[1] = Table 3, percentage of Akt1/2/3 phosphorylation elicited by 10% FBS, read-out: Emax (%), Akt 1 (Thr308) phosphorylation, hFPR2-Flpln-CHO
[2] = Table 8, percent of response elicited by 10% FBS, read-out: Emax, Akt 1/2/3 (Thr308) phosphorylation, hFPR2-Flpln-CHO

| Structure (SMILES) | Emax [1] [%] | ΔLog(τ/KA), Akt 1/2/3 (Thr308) phosphorylation, hFPR2-Flpln-CHO (Table 8) | Emax [2] [%] | Log(τ/KA), Akt 1/2/3 (Thr308) phosphorylation, hFPR2-Flpln-CHO (Table 8) | EC50 (Table 3, read-out: pEC50, Akt 1 (Thr308) phosphorylation, hFPR2-Flpln-CHO (converted)) [µM] | EC50 (Table 8, read-out: pEC50, Akt 1/2/3 (Thr308) phosphorylation, hFPR2-Flpln-CHO (converted)) [µM] |
| --- | --- | --- | --- | --- | --- | --- |
| CSCC[C@H](NC=O)C(=O)N[C@@H](CC(C)C)C(=O)N[C@@H](Cc1ccccc1)C(=O)O [fMLP, N-formyl-Met-Leu-Phe] | 7 ± 2 | −2.1 ± 0.3 | 21 ± 2 | 4.8 ± 0.1 | – | – |
| CC(C)C1C(NC(=O)Nc2ccc(Cl)cc2)C(=O)N(c2ccccc2)N1C (stereo not shown) [BIDI-002] | 27 ± 2 | 0.0 | 27 ± 2 | 7.0 ± 0.2 | 0.138 | 0.126 |
